Data as given in PMC8868331, “Hydroxamic Acid as a Potent Metal-Binding Group for Inhibiting Tyrosinase” (Antioxidants, 2022).
Read-outs that look alike come from different tables or passages of the source.

How the values were obtained:
mushroom tyrosinase = mushroom tyrosinase (Agaricus bisporus, UniProt C7FF04); experiment: Differential scanning fluorimetry (DSF) with SYPRO Orange; assay type: binding; conditions: 500 μM inhibitor; for Tm: mean ± SD of three experiments, DMSO control 49.16
Procedure: Differential scanning fluorimetry—Differential scanning fluorimetry (DSF) was used to characterize the direct binding of inhibitors to tyrosinase. In the absence and presence of 500 μM inhibitor, SYPRO® Orange was added to the enzyme solution. […] Time- and temperature-dependent signals were observed using the RT-PCR CFX96 system from BioRad (Hercules, CA, USA). The following equation was nonlinearly minimized to determine the mid-point melting temperature (Tm). I(T)=LL+UL−LL/[1+exp(Tm−T/a)] where UL and LL indicate the top and baseline of the curves, respectively, and a indicates the steepness of the slope.
We used differential scanning fluorimetry (DSF) to verify whether active small molecules identified by biochemical assays bound to tyrosinase directly. DSF was used to evaluate the fluorescence profiles of the dye SYPRO® Orange in a mixture with the protein upon elevating the temperature. The alteration in the unfolding process in the presence of a direct binder can shift the DSF pattern.

[1] = biological target: mushroom tyrosinase from Agaricus bisporus (Agaricus bisporus, UniProt C7FF04); experiment: Enzyme-activity assay with mushroom tyrosinase, L-DOPA substrate, dopachrome absorbance at 475 nm; assay type: biochemical
carbonic anhydrase = tested on: carbonic anhydrase; parameters: method as in PMID 22836518; conditions: cited from earlier work
[2] = biological target: T1, mammalian tyrosinase in B16F10 cell lysates (Mus musculus, UniProt P11344); experiment: Cell-lysate-based tyrosinase activity assay; assay type: biochemical, murine; conditions: 50 μM, relative to untreated control
T1 construct: The cell extracts having tyrosinase activity were prepared; host or cells: B16F10 murine melanoma cells, stimulated with 3-isobutyl-1-methylxanthine, lysate
T1 sequence (P11344 19-533): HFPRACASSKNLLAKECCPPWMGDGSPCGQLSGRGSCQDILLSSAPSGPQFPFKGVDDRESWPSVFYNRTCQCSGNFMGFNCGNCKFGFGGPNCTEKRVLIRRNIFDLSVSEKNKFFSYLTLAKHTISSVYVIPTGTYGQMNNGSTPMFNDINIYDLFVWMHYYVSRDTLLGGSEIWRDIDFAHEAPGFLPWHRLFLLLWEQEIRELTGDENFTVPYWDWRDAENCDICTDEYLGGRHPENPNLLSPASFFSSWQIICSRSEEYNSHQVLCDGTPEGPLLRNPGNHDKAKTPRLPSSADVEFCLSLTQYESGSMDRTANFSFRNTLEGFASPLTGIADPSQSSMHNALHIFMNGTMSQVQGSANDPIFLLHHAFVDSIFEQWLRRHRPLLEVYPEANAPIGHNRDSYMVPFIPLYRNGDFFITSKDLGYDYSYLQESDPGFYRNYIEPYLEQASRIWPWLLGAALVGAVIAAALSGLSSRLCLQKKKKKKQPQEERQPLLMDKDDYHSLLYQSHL
Procedure: Cell-lysate-based activity assays with inhibitors—Cell-lysate-based assays were performed using B16F10 murine melanoma cells obtained from the Korean Cell Line Bank (Seoul, Korea). The B16F10 cells were grown to a density of 1 × 10^5 cells in Dulbecco’s modified Eagle’s medium supplemented with 10% fetal bovine serum and 1% penicillin−streptomycin at 37 °C under 5% CO2. The cells were incubated for 48 h after the addition of 100 μM 3-isobutyl-1-methylxanthine. The cell extracts having tyrosinase activity were prepared.
The melanin quantification assay and the cell-lysate-based activity assay were used for confirming the inhibition of mammalian tyrosinases. Unfortunately, quantifying melanin content using hydroxamate-containing molecules is not feasible because anticancer agents affect cell viability. Therefore, we evaluated tyrosinase activities using B16F10 cell lysates in a small-molecule-concentration-dependent manner.

[3] = tested on: arachidonate 5-lipoxygenase; parameters: method as in PMID 3820229; conditions: cited from earlier work
mandelate racemase = tested on: mandelate racemase; parameters: method as in PMID 17055725; conditions: cited from earlier work
tyrosinase [4] = biological target: tyrosinase (Agaricus bisporus, UniProt C7FF04); experiment: Enzyme-inhibitory kinetics (Michaelis-Menten fitting with inhibition models); assay type: biochemical, mushroom; conditions: for Kinetics model (mode of inhibition): model chosen by F-test on reduced χ2
Procedure: Enzyme-inhibitory kinetics—Upon varying the substrate and inhibitor concentrations, the rates of product generation were measured. Simultaneous nonlinear fitting of all the profiles in an inhibitor was performed by minimizing the ꭓ^2-value, the sum of the squared differences in theoretical and experimental values, in the Michaelis–Menten equations assuming competitive, uncompetitive, noncompetitive, and mixed models. […] Reduced ꭓ^2-values, ꭓ^2-values divided by the difference in the numbers of input data and fitting parameters, were compared between the models based on the F-test to identify the most appropriate model.
The inhibitory kinetic experiments provide information for understanding the inhibition by small molecules. The rates of product generation were measured for a series of paired substrate and inhibitor concentrations. Subsequent nonlinear fitting using the Michaelis−Menten equations extended with inhibitory models and constants produced the inhibition mode and the binding constant.
Figure 4F lists the parameters for inhibition. […] However, one should be careful not to overinterpret the simulated modes and Ki values. The modes were chosen using the F-test, comparing reduced χ^2-values from each model.

[5] = tested on: indoleamine 2,3-dioxygenase; parameters: method as in PMID 26717206; conditions: cited from earlier work
tyrosinase [6] = conditions: cited from earlier work; for IC50: ChEMBL-registered tyrosinase inhibitor
[7] = shift toward lower temperature against DMSO
[8] = mushroom tyrosinase, concentration-dependent profile (Figure 2)

Chain of mushroom tyrosinase from Agaricus bisporus (C7FF04 1-392): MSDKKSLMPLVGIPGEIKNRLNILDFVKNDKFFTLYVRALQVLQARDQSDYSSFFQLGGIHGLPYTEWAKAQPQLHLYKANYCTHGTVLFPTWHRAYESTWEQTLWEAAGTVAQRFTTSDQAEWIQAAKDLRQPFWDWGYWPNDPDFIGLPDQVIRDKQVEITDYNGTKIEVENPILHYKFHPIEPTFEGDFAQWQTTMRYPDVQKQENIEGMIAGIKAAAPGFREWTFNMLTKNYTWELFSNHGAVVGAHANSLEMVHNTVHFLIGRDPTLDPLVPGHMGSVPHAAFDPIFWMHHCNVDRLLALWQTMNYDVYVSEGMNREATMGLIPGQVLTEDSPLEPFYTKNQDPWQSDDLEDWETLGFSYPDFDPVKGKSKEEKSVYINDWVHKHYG
Chain of mushroom tyrosinase (C7FF04 1-392 limits assumed): as the sequence (C7FF04 1-392) above
Chain of tyrosinase (Agaricus bisporus, UniProt C7FF04) (C7FF04 1-392): as above

Question: For `O=C(NO)c1ccccc1` [Benzohydroxamic acid], which Tm (mushroom tyrosinase) is on record?
Answer: The Tm was 47.15 ± 0.07 °C.

Question: And the ΔTm (mushroom tyrosinase; shift toward lower temperature)?
Answer: Its ΔTm is 2.01 degrees.

Question: What about the ΔTm (mushroom tyrosinase; [7]) of the same compound?
Answer: The ΔTm was 2.01 °.

Question: And the Ki [1]?
Answer: Its Ki is 0.007 ± 0.001 µM.

Question: What about the “Inhibition of carbonic anhydrase (in words)” value (carbonic anhydrase) of the same compound?
Answer: The value was “μM range”.

Question: What about the “Decrease of tyrosinase activity” value [2] of the same compound?
Answer: The value was “approximately 97%”.

Question: What about the “Inhibition of arachidonate 5-lipoxygenase (in words)” value [3] of the same compound?
Answer: The value was “μM range”.

Question: And the “Inhibition of mandelate racemase (in words)” value (mandelate racemase)?
Answer: Its value is “μM range”.

Question: And the Ki (tyrosinase [4])?
Answer: Its Ki is 0.128 µM.

Question: What about the “Kinetics model (mode of inhibition)” value (tyrosinase [4]) of the same compound?
Answer: Its value is “noncompetitive”.

Question: And the “Inhibition of indoleamine 2,3-dioxygenase (in words)” value [5]?
Answer: The value was “μM range”.

Question: Which results are given for `CC(=O)NO` [Acetohydroxamic acid]?
Answer: Ki ([1]; inhibitory constant converted from IC50 (Cheng-Prusoff), 5 nM enzyme, 500 μM L-DOPA, ± is SD from Monte-Carlo simulation, read-out: Ki): 38 ± 8 µM; Kinetics model (mode of inhibition) (tyrosinase [4]): noncompetitive

Question: Which IC50 (tyrosinase [6]; ref 62 (supplement ref 8)) does the source give for `CCN(CC)C(=O)/C=C/c1ccc(O)cc1O` [CHEMBL4463984] here?
Answer: The IC50 was 0.011 µM.

Question: With `NCC(=O)NO` [Glycine hydroxamate] as the compound, how does the “Inhibition of tyrosinase (in words)” value (tyrosinase [6]) read?
Answer: Its value is “comparable inhibitory activity to arbutin”.

Question: With `C/C=C1\NC(=O)[C@H]2CSSCC/C=C/[C@H](CC(=O)N[C@H](C(C)C)C(=O)N2)OC(=O)[C@H](C(C)C)NC1=O` [Romidepsin] as the compound, how does the “Inhibition of tyrosinase (in words)” value [1] read?
Answer: The value was “inhibited very weakly”.

Question: And the Ki [1]?
Answer: The Ki was greater than 500 µM.

Question: With `O=C(CCCCCCC(=O)NO)NO` [Suberohydroxamic acid] as the compound, how does the Ki ([1]; read-out: Ki) read?
Answer: Its Ki is 1 ± 0.2 µM.

Question: With `CCCC(=O)NO` [Butyrylhydroxamic acid] as the compound, how does the Ki ([1]; read-out: Ki) read?
Answer: Its Ki is 32 ± 5 µM.

Question: With `CC(/C=C/C(=O)NO)=C\[C@@H](C)C(=O)c1ccc(N(C)C)cc1` [Trichostatin A] as the compound, how does the Tm (mushroom tyrosinase) read?
Answer: The Tm was 46.55 ± 0.07 °C.

Question: And the Ki [1]?
Answer: Its Ki is 1 ± 0.1 µM.

Question: What about the Ki (tyrosinase [4]; Ki for apo state (mixed model), first value, apo state) of the same compound?
Answer: Its Ki is 4.5 µM.

Question: What about the Ki (tyrosinase [4]; Ki for holo state (mixed model), second value, holo state) of the same compound?
Answer: Its Ki is 37 µM.

Question: What about the “Kinetics model (mode of inhibition)” value (tyrosinase [4]) of the same compound?
Answer: Its value is “mixed”.

Question: Which Tm (mushroom tyrosinase) does the source give for `O=C(CCCCCN1C(=O)c2cccc3cccc(c23)C1=O)NO` [Scriptaid] here?
Answer: Its Tm is 47.31 ± 0.07 °C.

Question: And the ΔTm (mushroom tyrosinase; shift toward lower temperature)?
Answer: The ΔTm was 1.85 degrees.

Question: And the ΔTm (mushroom tyrosinase; [7])?
Answer: Its ΔTm is 1.85 °.

Question: And the Ki [1]?
Answer: Its Ki is 0.18 ± 0.021 µM.

Question: What about the “Kinetics model (mode of inhibition)” value (tyrosinase [4]) of the same compound?
Answer: Its value is “competitive”.

Question: For `O=c1cccccc1O` [Tropolone], which Ki ([1]; read-out: Ki) is on record?
Answer: The Ki was 0.043 ± 0.003 µM.

Question: Which IC50 (tyrosinase [6]; ref 61 (supplement ref 7)) does the source give for `Oc1ccc(-c2nc3ccccc3s2)c(O)c1` [CHEMBL1408767] here?
Answer: Its IC50 is 0.01 µM.

Question: Which “Inhibition of tyrosinase (in words)” value [1, 8] does the source give for `CCCC(CCC)C(=O)O` [Valproic acid] here?
Answer: The value was “inhibited very weakly”.

Question: What about the Ki ([1]; read-out: Ki) of the same compound?
Answer: The Ki was greater than 500 µM.

Question: For `CC(=O)NO` [N-Hydroxyacetamide], which Ki ([1]; inhibitory constant converted from IC50 (Cheng-Prusoff), 5 nM enzyme, 500 μM L-DOPA, read-out: Ki) is on record?
Answer: The Ki was greater than 1000 µM.

Question: What about the “Inhibition of tyrosinase (in words)” value [1, 8] of the same compound?
Answer: Its value is “scarcely inhibited”.

Question: What does the source list for `Cc1[nH]c2ccccc2c1CCNCc1ccc(/C=C/C(=O)NO)cc1` [Panobinostat]?
Answer: Tm (mushroom tyrosinase): 46.72 ± 0.06 °C; ΔTm (mushroom tyrosinase; shift toward lower temperature): 2.44 degrees; ΔTm (mushroom tyrosinase; [7]): 2.44 °; Ki values as worded in the text (words or range with mixed units) ([1]; mushroom tyrosinase): submicromolar range; Ki ([1]; read-out: Ki): 0.04 ± 0.005 µM; Kinetics model (mode of inhibition) (tyrosinase [4]): competitive; Ki (tyrosinase [4]; simultaneous nonlinear fit, read-out: Ki (simulated inhibitory constant from kinetics fit)): 0.29 µM
